Consider 15 molecules from patent US20120058135A1, “Identification and characterization of racemases, definition of protein signatures, and a test for detecting D-amino acid and for screening molecules capable of inhibiting the activity of racemase, especially proline racemase” (Institut Pasteur, priority 2010, published 2012).

SMILES strings stand for the structures. pKi: −log10 of the molar value. Where “and” joins values, the source holds several entries; their conditions need not be identical. Equal values may be shown once.

One data set concerns the target T1, D-AAO (Sus scrofa, UniProt P00371).
T1 construct: purchased Sigma A-5222; host or cells: swine kidney
The data set is described as follows: D-AAO microplate test for detection of D-amino acids. It is filed as biochemical, swine. The following applies: raw OD. From the text:
The D-AAO/HRP test described here above can also be used for this purpose with slight modifications. For that purpose, the racemase reaction step should be skipped and the microplate test should start straightforward at the II-1-2.1-2 step described above with the following remarks:
1) Standard: It should not be an equimolar mixture of D- and L-amino acid, but rather a serial dilution of D-Amino acids. The choice of amino acid is made according to the interest of the D-amino acid under investigation. The final volume in wells should be of 87 μl.
2) Negative control: It is made with the L-enantiomer of the D-amino acid under investigation. The final volume should be 87 μl.
3) Blank: It is made with 87 μl buffer*. (See paragraph II.1.1 Materials.)
4) Samples: The samples to be tested should be adjusted to pH 8.3 with buffer* and their final volumes should be of 87 μl per well.
5) Then, the procedure follows steps 3) to 6), as above.
Different L- and D-amino acids were tested, namely Tyrosine (Tyr), Valine (Val), Threonine (Thr), Glutamic acid (Glu), Lysine (Lys) and Tryptophan (Try).

Another data set deals with D-AAO/HRP (Sus scrofa, UniProt P00371). Briefly: Interference with the D-AAO/HRP reaction. The class given is biochemical, swine.
D-AAO/HRP, sequence (P00371 whole entry): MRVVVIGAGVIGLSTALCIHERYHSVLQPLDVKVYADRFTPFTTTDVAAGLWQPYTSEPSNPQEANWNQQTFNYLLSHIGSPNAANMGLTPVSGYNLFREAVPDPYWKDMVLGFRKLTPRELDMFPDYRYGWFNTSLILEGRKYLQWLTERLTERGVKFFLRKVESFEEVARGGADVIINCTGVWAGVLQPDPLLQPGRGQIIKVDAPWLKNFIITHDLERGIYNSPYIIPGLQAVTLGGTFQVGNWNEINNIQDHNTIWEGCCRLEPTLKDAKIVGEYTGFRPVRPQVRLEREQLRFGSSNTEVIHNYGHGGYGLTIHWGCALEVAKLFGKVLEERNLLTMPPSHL
For data set [1], the target named is native protein obtained from a soluble epimastigote fraction (proline racemase) (Trypanosoma cruzi, UniProt Q868H8). Briefly: Kinetic assays using the native protein from a soluble epimastigote fraction. The class given is biochemical. The text has this: The progress of racemization reaction was monitored polarimetrically, as previously described (13). […] Values obtained were confirmed by using the Kaleïdagraph® program and Michaelis-Menten equation. […] C.
native protein obtained from a soluble epimastigote fraction (proline racemase), sequence (Q868H8 whole entry): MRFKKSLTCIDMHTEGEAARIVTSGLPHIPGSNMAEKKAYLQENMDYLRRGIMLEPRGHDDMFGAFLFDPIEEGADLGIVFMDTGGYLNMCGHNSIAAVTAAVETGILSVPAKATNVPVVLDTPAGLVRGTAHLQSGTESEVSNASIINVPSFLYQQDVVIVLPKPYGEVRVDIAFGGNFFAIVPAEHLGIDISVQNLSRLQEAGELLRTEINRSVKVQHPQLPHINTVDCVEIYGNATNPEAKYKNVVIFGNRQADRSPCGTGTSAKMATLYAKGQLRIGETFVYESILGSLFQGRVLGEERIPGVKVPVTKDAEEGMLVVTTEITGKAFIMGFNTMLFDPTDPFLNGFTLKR

Data set [2] relates to non-infected monkey cell cultures.
The target in a further data set is T2, CsPR (Acetoanaerobium sticklandii, UniProt E3PTZ4).
T2 sequence (E3PTZ4 1-335): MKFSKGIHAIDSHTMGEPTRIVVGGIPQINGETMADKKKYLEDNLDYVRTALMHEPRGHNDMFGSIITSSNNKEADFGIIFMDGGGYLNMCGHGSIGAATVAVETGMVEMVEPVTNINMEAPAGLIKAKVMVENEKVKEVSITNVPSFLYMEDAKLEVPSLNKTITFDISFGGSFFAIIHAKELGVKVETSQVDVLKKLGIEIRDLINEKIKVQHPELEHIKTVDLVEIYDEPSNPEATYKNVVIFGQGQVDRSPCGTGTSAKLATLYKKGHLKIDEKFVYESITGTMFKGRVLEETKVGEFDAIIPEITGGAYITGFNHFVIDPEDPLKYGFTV
The settings on record: cited from earlier work.

The next data set has as its system B cells. The settings on record: TcPRAC inhibited by the compound; cited from earlier work.

T1 sequence (P00371 whole entry): as the sequence (P00371 whole entry) above

Consider `N[C@@H](CCC(=O)O)C(=O)O` [D-Glu, Glutamic acid], for which, at D-AAO (D-enantiomers, 6.25 mM), the “Optical density at 490 nm after D-AAO reaction” value (“Optical density at 490 nm” below) is 0.147 and 0.116.

On to `NCCCC[C@H](N)C(=O)O` [D-Lys, Lysine], for which the “Optical density at 490 nm” value at D-AAO (D-enantiomers, 6.25 mM) is 0.243 and 0.157.

With `C[C@@H](O)[C@H](N)C(=O)O` [D-Thr, Threonine], the “Optical density at 490 nm” value at D-AAO (D-enantiomers, 6.25 mM) is 0.215 and 0.157.

For `N[C@@H](Cc1c[nH]c2ccccc12)C(=O)O` [D-Try, Tryptophan], the “Optical density at 490 nm” value on D-AAO (D-enantiomers, 6.25 mM) was 0.615 and 0.662.

Consider `N[C@@H](Cc1ccc(O)cc1)C(=O)O` [D-Tyr, Tyrosine], for which the “Optical density at 490 nm” value on D-AAO (D-enantiomers, 6.25 mM) is 1.317 and 0.991.

Regarding `CC(C)[C@H](N)C(=O)O` [D-Val, Valine], the “Optical density at 490 nm” value at D-AAO (D-enantiomers, 6.25 mM) is 1.683 and 1.612.

In the case of `O=C(O)[C@H]1CCCN1` [D-pro, D-Proline], the “Optical density at 490 nm” value is 0.173 on D-AAO (0.05 mM); 0.213 and 0.215 at D-AAO (0.09 mM); 0.308 and 0.32 at D-AAO (0.19 mM); 0.496 and 0.504 on D-AAO (0.39 mM); 0.809 and 0.824 at D-AAO (0.77 mM); 1.234 and 1.221 on D-AAO (1.55 mM). In addition, the “Optical density at 490 nm” value at D-AAO (3.09 mM) is 1.716 and 1.879; on D-AAO (6.19 mM) it was 1.983 and 1.949; on D-AAO (12.37 mM), 1.814 and 1.976; on D-AAO (24.75 mM) it was 1.757 and 1.885; on D-AAO (49.5 mM), 1.961 and 2.004.

As for `N[C@@H](CCC(=O)O)C(=O)O` [L-Glu, Glutamic acid], on D-AAO (L-enantiomers, 12.5 mM), the “Optical density at 490 nm” value was 0.131 and 0.141.

For the molecule `NCCCC[C@H](N)C(=O)O` [L-Lys, Lysine], the “Optical density at 490 nm” value at D-AAO (L-enantiomers, 12.5 mM) is 0.125 and 0.131.

Regarding `O=C(O)[C@@H]1CCCN1` [L-Proline], the “effect on D-AAO/HRP reaction” value at D-AAO/HRP is on record as “Inhibits”.

Turning to `C[C@@H](O)[C@H](N)C(=O)O` [L-Thr, Threonine], the “Optical density at 490 nm” value on D-AAO (L-enantiomers, 12.5 mM) was 0.124 and 0.128.

On to `N[C@@H](Cc1c[nH]c2ccccc12)C(=O)O` [L-Try, Tryptophan], for which, at D-AAO (L-enantiomers, 12.5 mM), the “Optical density at 490 nm” value is 0.131 and 0.138.

For the molecule `N[C@@H](Cc1ccc(O)cc1)C(=O)O` [L-Tyr, Tyrosine], the “Optical density at 490 nm” value on D-AAO (L-enantiomers, 12.5 mM) is 0.193 and 0.141.

Take `CC(C)[C@H](N)C(=O)O` [L-Val, Valine]: the “Optical density at 490 nm” value at D-AAO (L-enantiomers, 12.5 mM) is 0.135 and 0.129.

For orientation: pKi means the negative decadic logarithm of the Ki, by convention in mol/L. As to `O=C(O)c1ccc[nH]1` [PAC, pyrrole-2-carboxylic acid], the results for the pKi (in data set [1]; on CsPR) were 5.94 and 4.74, respectively. Moreover, at D-AAO/HRP, the “effect on D-AAO/HRP reaction” value is recorded as “does not influence DAAO/HRP reaction”. For the same molecule, the “interference with cellular growth” value in data set [2] was “do not interfere with cellular growth”. Also, the “TcPRAC B cell mitogenic ability” value with B cells is “total loss of TcPRAC B cell mitogenic ability”.
